Assay [1] has as its target T1, binding of 125I-sauvagine to the cerebellum (Rattus norvegicus, UniProt P35353).
T1 construct: from tissue; host or cells: rat cerebellum
T1 sequence (P35353 24-415): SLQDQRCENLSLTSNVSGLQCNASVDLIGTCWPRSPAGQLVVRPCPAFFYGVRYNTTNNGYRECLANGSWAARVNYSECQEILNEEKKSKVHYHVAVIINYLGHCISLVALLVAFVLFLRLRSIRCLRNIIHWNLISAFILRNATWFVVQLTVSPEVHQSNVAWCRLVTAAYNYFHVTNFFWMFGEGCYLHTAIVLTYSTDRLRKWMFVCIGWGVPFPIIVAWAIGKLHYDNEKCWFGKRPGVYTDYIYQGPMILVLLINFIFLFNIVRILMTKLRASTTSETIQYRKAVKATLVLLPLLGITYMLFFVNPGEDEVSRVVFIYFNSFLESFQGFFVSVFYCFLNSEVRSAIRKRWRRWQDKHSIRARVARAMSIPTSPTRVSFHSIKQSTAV
The assay is described as follows: In vivo potency assessment using ex vivo binding. The following applies: oral route. The method, then:
To assess in vivo potency, a compound of the present invention is evaluated using ex vivo binding. Using the procedures as provided in D. R. Gehlert et al., EJP 509: 145-153 (2005), a compound is administered to a rat via the oral route.

The target of assay [2] is T2, human CRF1 (Homo sapiens, UniProt P34998).
T2 construct: expressed in transfected cells
T2 sequence (P34998 24-415): T1 sequence (P35353 24-415) with R6H, N9S, T13A, V16I, V153M, A163G, V209I, H229Y, R356H
Kind of assay: CRF1 filter binding assay. As to conditions: HEK-hCRF1 membranes; 125I-Sauvagine (4 nM) in roller/adherent cells; read-out: Ki (inhibition constant), inhibition of binding of 125I-Sauvagine. How it is done: The limitations of plasmid-based human CRF1 expression, in terms of generating a recombinant cell line with sufficient receptor density to develop a binding assay, are overcome by using a Phoenix retroviral expression system licensed from Stanford. The stable HEK-hCRF1 cell line is used to prepare membranes and binding reactions (200 μl) are set up as follows: 50 μl of ^125I-sauvagine (0.2 nM final), 50 μl compound and 100 μl CRF1 membrane (25 μg/reaction). The reactions are incubated at room temperature for 2 hours and then terminated by filtration through pre-treated FB Millipore glass fiber filter plates (96 well). The plates are wash twice with ice-cold assay buffer (50 mM tris, 12.5 mM NaCl, 1 mM EDTA, 10 mM MgCl2, 0.05% BSA, pH 7.2), air dried over night and counted with 100 μl Microscint 40 in a MicroBeta counter. Non-specific binding (NSB) is determined in the presence of 0.5 μM non-labeled sauvagine. Triplicate determinations are typically run and the median data points plotted by Graph Pad Prism.
Using this assay, the exemplified compounds of the present invention (except for Examples 2, 3, 6, 7, and 8, which were used as intermediates for other Examples and were not tested.) inhibit the binding of ^125I-Sauvagine (4 nM) in roller/adherent cells with a Ki (inhibition constant)≦500 nM.

Assay [3] concerns the target T3, human CRF2 (Homo sapiens, UniProt Q13324).
T3 construct: expressed in transfected cells
T3 sequence (Q13324 1-411): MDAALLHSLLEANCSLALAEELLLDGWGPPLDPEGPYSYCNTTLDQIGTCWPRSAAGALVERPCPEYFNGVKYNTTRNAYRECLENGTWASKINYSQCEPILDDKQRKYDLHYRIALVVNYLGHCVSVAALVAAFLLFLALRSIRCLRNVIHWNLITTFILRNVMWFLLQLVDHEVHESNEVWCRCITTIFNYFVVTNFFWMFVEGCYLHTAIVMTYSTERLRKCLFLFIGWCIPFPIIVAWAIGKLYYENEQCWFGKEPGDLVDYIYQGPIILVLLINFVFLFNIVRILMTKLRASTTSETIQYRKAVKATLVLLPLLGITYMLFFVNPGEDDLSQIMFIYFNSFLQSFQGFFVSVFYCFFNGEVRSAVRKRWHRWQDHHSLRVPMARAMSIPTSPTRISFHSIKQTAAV
The assay is described as follows: CRF2 filter binding assay. As to conditions: HEK-hCRF2 membranes; compound concentration 50 μM. How it is done:
The limitations of plasmid-based human CRF2 expression, in terms of generating a recombinant cell line with sufficient receptor density to develop a binding assay, are overcome by using a Phoenix retroviral expression system licensed from Stanford. The stable HEK-hCRF2 cell line is used to prepare membranes and binding reactions (200 μl) are set up as follows: 50 ul of ^125I-sauvagine (0.2 nM final concentration), 50 μl compound and 100 μl CRF2 membrane (25 μg/reaction). The reactions are incubated at room temperature for 2 hours and then terminated by filtration through pre-treated FB Millipore glass fiber filter plates (96 well). The plates are washed twice with ice-cold assay buffer (50 mM tris, 12.5 mM NaCl, 1 mM EDTA, 10 mM MgCl2, 0.05% BSA, pH 7.2), air dried over night and counted with 100 μl Microscint 40 in a MicroBeta counter. Non-specific binding (NSB) is determined in the presence of 0.5 μM non-labeled sauvagine. Alternatively, compounds are evaluated using a Scintillation Proximity assay. […] Bound radioactivity is assessed using a Wallac Trilux scintillation counter. Binding is assessed typically using triplicate determinations and the median data points plotted by Graph Pad Prism. […]

Where a chain is given by its changes, count along the chain named. pKi: −log10 of the molar value.

The term inhibition denotes the change of the read-out against control, counted positive when it falls. In general, pKi refers to the Ki on a negative log10 scale, so that one unit is a factor of ten. Take `CCCC(CCC)c1cc(C)nc2c(-c3sc(-c4ncnn4C)cc3Cl)c(C)nn12` [Example 20, 3-[3-Chloro-5-(2-methyl-2H-[1,2,4]triazole-3-yl)-thiophene-2-yl]-7-(1-propyl-butyl)-2,5-dimethyl-pyrazolo[1,5-a]pyrimidine]: 10 mg/kg produced 74% inhibition in assay [1]. Further, the pKi in assay [2] was 8.36. Moreover, the inhibition at 50 µM in assay [3] was determined as 39%.

(Values after US8110580B2, “Thiophene pyrazolopyrimidine compounds” (Eli Lilly and Company, priority 2006, dated 2012).)
